# Experimental data published in patent publication US8071549B2, “Compounds capable of affecting differentiation, proliferation, regeneration, plasticity and survival cells” (priority 2001, dated 2011).
# Peptide text beside a SMILES is read from it.
# Experiments:
# hippocampal neurons = assay: Neurite outgrowth from hippocampal neurons; details: for neurite outgrowth in dose-response study: bell-shaped dose-response curve, 24 h
# Description: Neurons were grown on Permanox plastic (Nunc, Denmark) for 24 h at a density 6250 cells/cm^2, at 37° C., 5% CO2 in Neurobasal medium containing 20 mM Hepes, 100 U/ml penicillin, 100 μg/ml streptomycin, 0.4% BSA supplemented with B27 (Gibco BRL, USA). After 24 h, cells were fixed with paraformaldehyde, stained with Coomassie Brilliant Blue R250 and analyzed.
# To test this assumption, dissociated neurons from embryonic rat hippocampus were seeded on plastic and allowed to grow for 24 h in the presence of the below described compounds. Thereafter, cells were fixed with paraformaldehyde, stained with Coomassie Brilliant Blue R250 and the length of neurites was measured using a stereological approach (Rønn et al., 2000).
# Peptides derived from the FG-lops of the neural cell adhesion molecules L1 and NCAM (third F3-module of L1 and first F3 module of NCAM) were prepared in different lengths, see FIG. 9a, and their effect on neurite outgrowth from primary hippocampal neurons were tested adding the various peptides in a concentration of 25 microM.
# [1] = test system: Cerebellar granule neurons; assay: Survival assay of cerebellar granule neurons in low potassium (MTS); type: cell-based, rat; details: 5 mM potassium, two days; for cells surviving, high potassium set at 100%: serum-free
# Description: Cerebellar granule neurons (CGN) from 7-days old rats are grown for 7-8 days in the presence of high potassium (40 mM). Cells are washed twice with serum-free culture medium (basal Eagle's medium BME) containing low potassium (5 mM) and grown in serum-free medium supplemented with FGL peptide for two days. Cultures are assayed for cell survival (D'Mello et al., 1997; Villalba et al., 1997; Skaper et al., 1998) by measuring reduction of MTS. MTS is a novel tetrazolium compound (Promega, USA), which is bioreduced by cells into a formazan that is soluble in tissue culture medium. The absorbance of the formazan at 490 nm is measured directly from 96 well assay plates without additional processing. The conversion of MTS into the aqueous soluble formazan is accomplished by dehydrogenase enzymes found in metabolically active cells. The quantity of formazan product as measured by the amount of 490 nm absorbance is directly proportional to the number of living cells in culture (Yao and Cooper, 1995);
# FGF-receptor 1 = biological target: T1, FGF-receptor 1 (Homo sapiens, UniProt P11362); assay: FGF-receptor phosphorylation in transfected HEK293 cells (immunoblotting); type: cell-based; details: 25 μM, 20 min, HEK293 cells with His-tagged FGF-receptor 1
# T1 construct: expressed in transfected cells; host or cells: HEK293, transient, PcDNA3.1(+) plasmid
# T1 sequence (P11362 22-822): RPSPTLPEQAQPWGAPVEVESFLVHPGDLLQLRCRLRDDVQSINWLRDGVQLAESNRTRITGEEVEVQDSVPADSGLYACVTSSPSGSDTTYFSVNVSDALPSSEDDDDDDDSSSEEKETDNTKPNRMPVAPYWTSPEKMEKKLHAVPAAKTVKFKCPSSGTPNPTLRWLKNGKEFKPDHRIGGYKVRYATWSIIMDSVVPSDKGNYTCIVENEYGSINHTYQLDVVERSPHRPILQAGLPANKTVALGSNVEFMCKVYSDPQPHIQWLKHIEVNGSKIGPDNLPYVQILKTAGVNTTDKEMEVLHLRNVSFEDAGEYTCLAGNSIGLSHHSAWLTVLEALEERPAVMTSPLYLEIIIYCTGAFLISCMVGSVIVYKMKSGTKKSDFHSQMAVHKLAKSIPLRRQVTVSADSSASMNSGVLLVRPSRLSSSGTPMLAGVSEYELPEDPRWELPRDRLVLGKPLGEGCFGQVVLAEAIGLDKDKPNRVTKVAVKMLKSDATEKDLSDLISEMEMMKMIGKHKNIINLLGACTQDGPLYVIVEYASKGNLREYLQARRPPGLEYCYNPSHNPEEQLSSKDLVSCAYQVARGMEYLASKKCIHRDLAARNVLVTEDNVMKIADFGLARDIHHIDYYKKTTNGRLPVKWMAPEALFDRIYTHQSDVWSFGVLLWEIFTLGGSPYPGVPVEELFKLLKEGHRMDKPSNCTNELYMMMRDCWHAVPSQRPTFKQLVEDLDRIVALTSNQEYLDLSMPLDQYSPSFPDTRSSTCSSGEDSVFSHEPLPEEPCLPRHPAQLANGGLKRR
# Description: Cells were grown in DMEM 1965 with 10% FCS, 100 U/ml penicillin, 100 μg/ml streptomycin and 58.4 g/l Glutamax. ˜0.8*10^6 cells were plated in 60 mm plates and cultured for 24 hrs before being transfected using LipofectAMIN PLUS™ reagent kit according to manufacturers instructions (Gibco BRL) with 0.2 μg PcDNA3.1(+) plasmid encoding a his-tagged (C-terminal hexa-histidine) version of FGFR-1. Cells were grown another 24 hrs in full medium, and then shifted to starving media (DMEM 1965 with 0.5% FCS) overnight.
# FGFR-1 transfected cells, incubated with 50 μg/ml NCAM derived recombinant fIII.2 or FG-loop for 20 minutes or non-stimulated, were lysed in 8M urea in PBS with 1 mM orthovanadate. The FGFR-1 was purified from total lysate via the His-tag moiety on an IMAC column. […] Samples were added SDS-PAGE sample buffer and analysed by western blotting using anti-pentahis ab (#34660 Qiagen) or anti-phosphotyrosine ab (PY20) (#11120 Transduction Laboratories). Bands were visualised by chemilumiscense and density was measured using a GeneGnome from SynGene with a 16 bit camera.
# Therefore, HEK293 cells were grown for 24 h on plastic plates, and subsequently transfected with a His-tagged version of the FGF-receptor 1 and cultured for another 24 h. […] The purified FGF-receptor 1 was then analyzed by immunoblotting using antibodies either to the His-tag or phosphotyrosine. […]
molecule,measurement,setting,value
EVAVVAENQQGASAA (listed as Homo sapiens),"neuritogenic potency (neurite outgrowth), result in words",hippocampal neurons; 50 μM peptide,retained its neuritogenic potency
same,stimulatory effect retained as compared to the entire (non-mutated) FG loop peptide,hippocampal neurons; 50 μM peptide,about 60%
same,inhibition of the peptide's stimulatory effect by ATP,"hippocampal neurons; 50 μM peptide, ATP 0.4 or 1 mM",could no longer be inhibited by ATP
AMKEDGR (listed as Homo sapiens),"neuritogenic potency (neurite outgrowth), result in words",hippocampal neurons; 50 μM peptide,to the same extent as the similar seven amino acids from the second F3 module of NCAM
"basic fibroblast growth factor: growth factor, natural ligand of the FGF-receptor, comparison in the survival assay [reference compound]","cells surviving, high potassium set at 100%",[1],~60%
AENQQGK [heptamer Ala 77-Lys 83],stimulatory effect retained as compared to the entire (non-mutated) FG loop peptide,hippocampal neurons; 50 μM peptide,approximately 50%
same,neurite outgrowth in dose-response study,hippocampal neurons,induced neurite outgrowth
same,neuritogenic efficiency compared with the extended form,hippocampal neurons; dose-response study,less efficient than the extended form
VAENQQGKS (listed as Homo sapiens) [nonamer Val 76-Ser 84],stimulatory effect retained as compared to the entire (non-mutated) FG loop peptide,hippocampal neurons; 50 μM peptide,approximately 50%
CC(C)[C@H](NC(=O)[C@H](Cc1ccc(O)cc1)NC(=O)[C@@H](NC(=O)[C@@H](N)CCC(=O)O)C(C)C)C(=O)N[C@H](C(=O)N[C@@H](C)C(=O)N[C@@H](CCC(=O)O)C(=O)N[C@@H](CC(N)=O)C(=O)N[C@@H](CCC(N)=O)C(=O)N[C@@H](CCC(N)=O)C(=O)NCC(=O)N[C@@H](CCCCN)C(=O)N[C@@H](CO)C(=O)N[C@@H](CCCCN)C(=O)N[C@@H](C)C(=O)O)C(C)C [FG loop peptide] (H-EVYVVAENQQGKSKA-OH),increase of FGF-receptor phosphorylation compared to control cells,FGF-receptor 1,approx. 100%
same,inhibition of induced neurite outgrowth by an antibody against the FGF-receptor,hippocampal neurons; 5 μM second F3 module or 50 μM FG loop peptide,complete inhibition
same,neurite outgrowth in dose-response study,hippocampal neurons,induced neurite outgrowth
same,"survival, % of the positive control","[1]; 250 microgram per ml, monomeric form",up to 90%
same,"survival, result in words",[1]; dose-range 2-250 microgram per ml,statistically significant survival
"Nc1ncnc2c1ncn2[C@@H]1O[C@H](COP(=O)(O)OP(=O)(O)CP(=O)(O)O)[C@@H](O)[C@H]1O [AMP-PCP, reference compound]",inhibition of the neuritogenic effect of the F3 module,"hippocampal neurons; 5 μM second F3 module, inhibitor 0.4 or 1 mM",complete inhibition
same,effect on neurite outgrowth when added alone,hippocampal neurons; 0.4 or 1 mM,did not have any effect
"brains-derived neurotrophic factor: neurotrophic factor used as comparison in the survival assay (protein, UniProt P23560 19-247, looked up) Neurotrophic factor BDNF …: APMKEANIRGQGGLAYPGVRTHGTLESVNGPKAGSRGLTSLADTFEHVIEELLDEDQKVRPNEENNKDADLYTSRVMLSSQVPLEPPLLFLLEEYKNYLDAANMSMRVRRHSDPARRGELSVCDSISEWVTAADKKTAVDMSGGTVTVLEKVPVSKGQLKQYFYETKCNPMGYTKEGCRGIDKRHWNSQCRTTQSYVRALTMDSKKRIGWRFIRIDTSCVCTLTIKRGR","cells surviving, high potassium set at 100%",[1],~60%
